# Results as given in US9504747B2, “Lipids and lipid compositions for the delivery of active agents” (Novartis AG, priority 2013, dated 2016).
# Columns and labels:
# [1] = Polydispersity index (PDI) of the lipid nanoparticle (dynamic light scattering); format: physicochemical
# Source text: The lipid nanoparticles (LNPs) were formed by mixing equal volumes of lipids dissolved in alcohol with siRNA dissolved in a citrate buffer by an impinging jet process. […] The siRNA to total lipid ratio is approximately 0.05 (wt/wt). Where a LNP formulation contains four lipid components, the molar ratios correspond to the type of lipid as it appears in the first four columns of the table, in the order that they appear. The ratio of the lipids ranges from 20 to 70 mole percent for the cationic lipid with a target of 40-60, the mole percent of helper lipid ranges from 20 to 70 with a target of 30 to 50, the mole percent of neutral lipid ranges from 0-30, the mole percent of PEG lipid has a range from 1 to 6 with a target of 2 to 5. The concentration of siRNA solution ranges from 0.7 to 1.0 mg/mL with a target of 0.8 to 0.9 mg/mL in a sodium citrate: sodium chloride buffer pH 4-6, with a target of 4.5-5.5. The LNPs are formed by mixing equal volumes of lipid solution in ethanol with siRNA dissolved in a citrate buffer by an impinging jet process through a mixing device with ID ranging from 0.25 to 2.0 mm at a flow rate from 10 to 640 mL/min. The mixed LNP solution is held at room temperature for 0-24 hrs prior to a dilution step. […] The final product is sterile filtered and stored at 4° C. Unless indicated otherwise, all PDIs referred to herein are the PDI of the fully formed nanoparticle, as measured by dynamic light scattering on a Malvern Zetasizer. The nanoparticle sample was diluted in phosphate buffered saline (PBS) so that the count rate was approximately 200-400 kcts. The data is presented in Tables 4 and 5 as a weighted average of the intensity measure.
# [2] = test system: PLK-1 mRNA; assay: LS411N Xenograft Assay with PLK1-424 siRNA lipid nanoparticles; format: in vivo, Female Nu/Nu mice; settings: percent knock down of PLK-1 mRNA in tumor vs control; 3 mg/kg IV daily for three days, 24 h post last injection; stealth lipid S010
# Protocol: Female Nu/Nu mice (6-8 weeks old) were implanted subcutaneously with 5×10^6 LS411N cells. Tumor growth was monitored by caliper measurement before treatment initiation. Mice bearing 150-250 mm^3 subcutaneous tumors were randomized and enrolled in the study. The stock siRNA formulations were diluted to […] with PBS for dosing. Animals enrolled in different groups received a single daily bolus IV injection of 3 mg/kg siRNA for three days. Tumors were harvested 24 hours post last injection to assess target gene regulation by qRT-PCR.
# Lipid nanoparticles comprising lipid compounds of formula (I) and the PLK1-424 siRNA duplex sequence listed above were tested in the LS411N Xenograft Assay. The results of this assay are given in Table 5 below as a percent knock down of PLK-1 mRNA as compared to the control when administered as a single daily dose for three days at a dose of 3 mg/kg.
# [3] = pKa measurement of the cationic lipid (TNS fluorescence vs pH); format: physicochemical; settings: probe TNS (fluorescent probe), pKa of the cationic lipid of formula (I)
# Protocol: Unless indicated otherwise, all pKa's referred to herein were measured at standard temperature and pressure. Also, unless otherwise indicated, all references to pKa are references to pKa measured using the following technique. 2 mM solution of lipid in ethanol was prepared by weighing the lipid and then dissolving it in ethanol. 0.3 mM solution of fluorescent probe TNS in ethanol:methanol 9:1 was prepared by first making 3 mM solution of TNS in methanol and then diluting to 0.3 mM with ethanol. An aqueous buffer containing 200 mM sodium phosphate dibasic and 100 mM citric acid was prepared. […] Using the Hamilton Microlab Star high throughput liquid handler and Hamilton run control software Software, 7.5 uL of probe/lipid mix were added to 242.5 uL of buffer in a 1 mL 96 well plate (model NUNC 260252, […] Nunc International). This was done with all twelve buffers. After mixing in 1 mL 96 well plate, 100 uL of each probe/lipid/buffer mixture was transferred to a 250 uL black with clear bottom 96 well plate (model COSTAR 3904, Corning). The fluorescence measurements are carried out on the SpectraMax M5 spectrophotometer using software SoftMax pro 5.2 and following parameters: After the measurement, the background fluorescence value of an empty well on the 96 well plate was subtracted from each probe/lipid/buffer mixture. The fluorescence intensity values were then normalized to the value at lowest pH. The normalized fluorescence intensity vs. pH chart was then plotted in the Microsoft Excel software. The twelve points were connected with a smooth line. The point on the line at which the normalized fluorescence intensity was equal to 0.5 was found. […] The pKa determined using this method is precise to about 0.1 pKa units.
# [4] = test system: respiratory syncytial virus F protein; assay: Immunization studies: anti-RSV-F titers after liposome-delivered vA317 self-replicating RNA; format: in vivo; settings: BALB/c mice, Course A = days 0 & 21, liposomes with 0.1 μg vA317 replicon (naked control 1 μg)
# Protocol: BALB/c were immunized with liposomes comprising DSPC, cholesterol, and various lipids of the invention (or, for comparison, the cationic lipid 1,2-dilinoleyloxy-N,N-dimethyl-3-aminopropane or ‘DLinDMA’). The liposomes encapsulated 0.1 μg of “vA317” self-replicating RNA replicon which encodes respiratory syncytial virus F protein (see WO2012/031043). […] Doses were given either on days 0 & 21 or days 0 & 42. Immune responses were assessed 2 weeks after each dose (2wp1, 2wp2), and in some cases also at 4 weeks after the second dose (4wp2). Four series of experiments were performed, each with its own naked control.
# [5] = Particle size of the lipid nanoparticle (dynamic light scattering, Malvern Zetasizer); format: physicochemical; settings: Table 4, FVII siRNA LNP, Z-average
# Source text: The lipid nanoparticles have a size of about 1 to about 2,500 nm, about 1 to about 1,500 nm, about 1 to about 1,000 nm, in a sub-embodiment about 50 to about 600 nm, in a sub-embodiment about 50 to about 400 nm, in a sub-embodiment about 50 to about 250 nm, and in a sub-embodiment about 50 to about 150 nm. Unless indicated otherwise, all sizes referred to herein are the average sizes (diameters) of the fully formed nanoparticle, as measured by dynamic light scattering on a Malvern Zetasizer. The nanoparticle sample is diluted in phosphate buffered saline (PBS) so that the count rate is approximately 200-400 kcts. The data is presented as a weighted average of the intensity measure. The lipid nanoparticles (LNPs) were formed by mixing equal volumes of lipids dissolved in alcohol with siRNA dissolved in a citrate buffer by an impinging jet process. […] The siRNA to total lipid ratio is approximately 0.05 (wt/wt). Where a LNP formulation contains four lipid components, the molar ratios correspond to the type of lipid as it appears in the first four columns of the table, in the order that they appear. The ratio of the lipids ranges from 20 to 70 mole percent for the cationic lipid with a target of 40-60, the mole percent of helper lipid ranges from 20 to 70 with a target of 30 to 50, the mole percent of neutral lipid ranges from 0-30, the mole percent of PEG lipid has a range from 1 to 6 with a target of 2 to 5. The concentration of siRNA solution ranges from 0.7 to 1.0 mg/mL with a target of 0.8 to 0.9 mg/mL in a sodium citrate: sodium chloride buffer pH 4-6, with a target of 4.5-5.5. The LNPs are formed by mixing equal volumes of lipid solution in ethanol with siRNA dissolved in a citrate buffer by an impinging jet process through a mixing device with ID ranging from 0.25 to 2.0 mm at a flow rate from 10 to 640 mL/min. The mixed LNP solution is held at room temperature for 0-24 hrs prior to a dilution step. […] The final product is sterile filtered and stored at 4° C. Unless indicated otherwise, all particle size measurements referred to in Tables 4 and 5 are the Z-average particle size of the fully formed nanoparticle, as measured by dynamic light scattering on a Malvern Zetasizer. The nanoparticle sample was diluted in phosphate buffered saline (PBS) so that the count rate is approximately 200-400 kcts.
# [6] = Table 4, FVII siRNA LNP, Chol/DSPC/stealth lipid PEG-DMG, 45/44/9/2
# [7] = Table 4, FVII siRNA LNP, Chol/DSPC/stealth lipid S010, 45/44/9/2
# [8] = Table 5, PLK1-424 siRNA LNP, stealth lipid S010, 45/44/9/2
# [9] = Chol/DSPC/stealth lipid S010, molar ratio 45/44/9/2
# [10] = Chol/DSPC/stealth lipid PEG-DMG, molar ratio 45/44/9/2
Structure (SMILES),"PDI [1, 6]","PDI [1, 7]",pKa ([3]; Table 4),"Size (nm) [5, 9] [nm]","Size (nm) [5, 10] [nm]",further results
CCCCCCCCCCOC(=O)CCCCCCCOc1cc(CN(C)C)cc(OCCCCCCCC(=O)OCCCCCCCCCC)c1 [Example 57],0.03,0.059,5.94,,,"PDI [1, 8]: 0.038; LS411 KD 3 × 3 mg/Kg [2]: 60%; pKa ([3]; Table 5): 5.94"
CCCCC/C=C\C/C=C\CCCCCCCC(=O)OCc1cc(COC(=O)CCCCCCC/C=C\C/C=C\CCCCC)cc(COC(=O)OCCCN(CC)CC)c1 [Example 69],,0.053,5.3,98.13,,anti-RSV-F titer 2wp1 pool 1 ([4]; 2 weeks after first dose): 2853; anti-RSV-F titer 2wp1 pool 2 ([4]; 2 weeks after first dose): 4481; anti-RSV-F titer 2wp2 pool 1 ([4]; 2 weeks after second dose): 23851; anti-RSV-F titer 2wp2 pool 2 ([4]; 2 weeks after second dose): 20793; anti-RSV-F titer 4wp2 pool 1 ([4]; 4 weeks after second dose): 19075; anti-RSV-F titer 4wp2 pool 2 ([4]; 4 weeks after second dose): 21504
CCCCC/C=C\C/C=C\CCCCCCCC(=O)OCCCCCCCCOc1cc(CN(C)C)cc(OCCCCCCCCOC(=O)CCCCCCC/C=C\C/C=C\CCCCC)c1 [Example 46],,0.135,6.18,102.4,,
CCCCC/C=C\C/C=C\CCCCCCCC(=O)OCCCCOc1cc(CN2CCCC2)cc(OCCCCOC(=O)CCCCCCC/C=C\C/C=C\CCCCC)c1 [Example 112],0.1,,6.08,,96.1,
CCCCC/C=C\C/C=C\CCCCCCCC(=O)OCc1cc(COC(=O)CCCCCCC/C=C\C/C=C\CCCCC)cc(CN(C)C)c1 [Example 33],0.06,0.042,5.85,79.15,107.8,
CCCCCCCC(=O)OCCCCCCCCCCOc1cc(CN(CC)CC)cc(OCCCCCCCCCCOC(=O)CCCCCCC)c1OCCCCCCCCCCOC(=O)CCCCCCC [Example 100],0.07,0.121,6.17,105.9,106.4,
CCCCCCCCCC(=O)OCCCCCCOc1cc(CN(C)C)cc(OCCCCCCOC(=O)CCCCCCCCC)c1 [Example 47],0.06,0.035,6.07,125.9,109.3,
CCCCCCCCCC(=O)OCCCCCC(=O)OCc1cc(COC(=O)CCCCCOC(=O)CCCCCCCCC)cc(CN(C)C)c1 [Example 88],,0.046,5.99,152.4,,
CCCCCCCC(=O)OCCCCCCOc1cc(CN(C)C)cc(OCCCCCCOC(=O)CCCCCCC)c1 [Example 48],,0.105,5.93,152.3,,
CCCCC/C=C\C/C=C\CCCCCCCC(=O)OCCCC(=O)OCc1cc(COC(=O)CCCOC(=O)CCCCCCC/C=C\C/C=C\CCCCC)cc(CN(C)C)c1 [Example 82],,0.064,6.03,119.2,,
CC/C=C\C/C=C\C/C=C\CCCCCCCC(=O)OCCCCOc1cc(CN(C)C)cc(OCCCCOC(=O)CCCCCCC/C=C\C/C=C\C/C=C\CC)c1 [Example 62],,0.066,5.9,102.5,,
CCCCCCCC(=O)OC[C@H](CCOc1cc(CN(C)C)cc(OCC[C@@H](COC(=O)CCCCCCC)OC(=O)CCCCCCC)c1)OC(=O)CCCCCCC [Example 93],,0.071,6,121.5,,
CCC/C=C\CCCCCCC(=O)OCCCCCCOc1cc(CN(C)C)cc(OCCCCCCOC(=O)CCCCCC/C=C\CCC)c1 [Example 50],,0.056,5.92,126,,
CCCCCCCC(=O)OCC(CCOc1cc(CN(C)C)cc(OCCC(COC(=O)CCCCCCC)OC(=O)CCCCCCC)c1)OC(=O)CCCCCCC (centres unmarked) [Example 91],0.06,0.053,6.01,,,"PDI [1, 8]: 0.032; LS411 KD 3 × 3 mg/Kg [2]: 45%; pKa ([3]; Table 5): 6.01"
CCCCCCCCCCCCC(=O)OCc1cc(COC(=O)CCCCCCCCCCCC)cc(CN(C)C)c1 [Example 34],0.06,0.036,5.95,113.8,126.0,
